Experimental data taken from US7811797B2, “α-isomaltosylglucosaccharide-forming enzyme, process and uses of the same” (Kabushiki Kaisha Hayashibara Seibutsu Kagaku Kenkyujo, priority 2000, dated 2010).

Legend:
Design in all cases: key: −: it showed no change; +: it showed a slight reduction of the color spot of the substrate and the formation of other reaction product; ++: it showed a high reduction of the color spot of the substrate and the formation of other reaction product; +++: it showed a substantial disappearance of the substrate spot and the formation of other reaction product
[1] = test system: α-isomaltosylglucosaccharide-forming enzyme; assay: Action on saccharides (substrates), Enzyme of Strain A19; format: biochemical, Arthrobacter globiformis A19; conditions: two units/g substrate, substrate 2% (w/v), 30° C., pH 8.4, 24 hours, TLC
Method: (§1) It was tested whether saccharides can be used as substrates for the α-isomaltosylglucosaccharide-forming enzyme. For the purpose, a solution of maltose, maltotriose, maltotetraose, maltopentaose, maltohexaose, maltoheptaose, isomaltose, isomaltotriose, panose, isopanose, trehalose, kojibiose, nigerose, neotrehalose, cellobiose, gentibiose, maltitol, maltotriitol, lactose, sucrose, erlose, selaginose, maltosyl glucoside, or isomaltosyl glucoside was prepared.
(§2) To each of the above solutions was added two units/g substrate of a purified specimen of α-isomaltosylglucosaccharide-forming enzyme from either Bacillus globisporus C9 obtained by the method in Experiment 4-2, Bacillus globisporus C11 obtained by the method in Experiment 7-2, Bacillus globisporus N75 obtained by the method in Experiment 11-2, or Arthrobacter globiformis A19 obtained by the method in Experiment 15-2, and the resulting each solution was adjusted to give a substrate concentration of 2% (w/v) and incubated at 30° C. and pH 6.0, except for using pH 8.4 for the enzyme from Arthrobacter globiformis A19, for 24 hours. The enzyme solutions before and after the enzymatic reactions were respectively analyzed on TLC disclosed in Experiment 1 to confirm whether the enzymes acted on these substrates.

[2] = test system: α-isomaltosylglucosaccharide-forming enzyme; assay: Action on saccharides (substrates), Enzyme of Strain N75; format: biochemical, Bacillus globisporus N75; conditions: two units/g substrate, substrate 2% (w/v), 30° C., pH 6.0, 24 hours, TLC
Method: as §1, §2

[3] = test system: α-isomaltosylglucosaccharide-forming enzyme; assay: Action on saccharides (substrates), Enzyme of Strain C9; format: biochemical, Bacillus globisporus C9; conditions: two units/g substrate, substrate 2% (w/v), 30° C., pH 6.0, 24 hours, TLC
Method: as §1, §2

[4] = test system: α-isomaltosylglucosaccharide-forming enzyme; assay: Action on saccharides (substrates), Enzyme of Strain C11; format: biochemical, Bacillus globisporus C11; conditions: two units/g substrate, substrate 2% (w/v), 30° C., pH 6.0, 24 hours, TLC
Method: as §1, §2

| Compound | Enzymatic action, Enzyme of Strain A19 [1] | Enzymatic action, Enzyme of Strain N75 [2] | Enzymatic action, Enzyme of Strain C9 [3] | Enzymatic action, Enzyme of Strain C11 [4] |
| --- | --- | --- | --- | --- |
| OC[C@H]1O[C@H](O[C@H]2C(O)O[C@H](CO)[C@@H](O)[C@@H]2O)[C@H](O)[C@@H](O)[C@@H]1O (stereo partly shown) [Kojibiose] | + | + | + | + |
| OC[C@H]1O[C@H](OC[C@H]2O[C@H](O[C@H]3[C@H](O)[C@@H](O)C(O)O[C@@H]3CO)[C@H](O)[C@@H](O)[C@@H]2O)[C@H](O)[C@@H](O)[C@@H]1O (stereo partly shown) [Panose] | − | − | − | − |
| OC[C@H]1O[C@H](O[C@H]2[C@H](O)[C@@H](O)[C@@H](O[C@H]3[C@H](O)[C@@H](O)[C@@H](O[C@H]4[C@H](O)[C@@H](O)C(O)O[C@@H]4CO)O[C@@H]3CO)O[C@@H]2CO)[C@H](O)[C@@H](O)[C@@H]1O (stereo partly shown) [Maltotetraose] | +++ | +++ | +++ | +++ |
| OC[C@H]1O[C@H](O[C@H]2O[C@H](CO)[C@@H](O)[C@H](O)[C@H]2O[C@H]2O[C@H](CO)[C@@H](O)[C@H](O)[C@H]2O)[C@H](O)[C@@H](O)[C@@H]1O [Selaginose] | − | − | − | − |
| Maltopentaose | +++ | +++ | +++ | +++ |
| Isomaltosyl glucoside | − | − | − | − |
| OC[C@H]1O[C@H](O[C@H]2[C@H](O)[C@@H](CO)OC(O)[C@@H]2O)[C@H](O)[C@@H](O)[C@@H]1O (stereo partly shown) [Nigerose] | + | + | + | + |
| OC[C@H]1O[C@H](O[C@H]2O[C@H](CO)[C@@H](O[C@H]3O[C@H](CO)[C@@H](O)[C@H](O)[C@H]3O)[C@H](O)[C@H]2O)[C@H](O)[C@@H](O)[C@@H]1O [Maltosyl glucoside] | ++ | ++ | ++ | ++ |
| Maltotriose | ++ | ++ | ++ | ++ |
| OC[C@H]1O[C@@](CO)(O[C@H]2O[C@H](CO)[C@@H](O[C@H]3O[C@H](CO)[C@@H](O)[C@H](O)[C@H]3O)[C@H](O)[C@H]2O)[C@@H](O)[C@@H]1O [Erlose] | + | + | + | + |
| OC[C@H]1O[C@H](O[C@H]2[C@H](O)[C@@H](O)[C@H](O)O[C@@H]2CO)[C@H](O)[C@@H](O)[C@@H]1O [Maltose] | + | + | + | + |
| Maltohexaose | +++ | +++ | +++ | +++ |
| OC[C@H]1O[C@@H](O[C@H]2O[C@H](CO)[C@@H](O)[C@H](O)[C@H]2O)[C@H](O)[C@@H](O)[C@@H]1O [Neotrehalose] | + | + | + | + |
| Maltoheptaose | +++ | +++ | +++ | +++ |
| OC[C@@H](O)[C@@H](O[C@H]1O[C@H](CO)[C@@H](O[C@H]2O[C@H](CO)[C@@H](O)[C@H](O)[C@H]2O)[C@H](O)[C@H]1O)[C@H](O)[C@@H](O)CO [Maltotriitol] | + | + | + | + |
| OC[C@H]1O[C@H](O[C@H]2[C@H](O)[C@@H](O)[C@@H](OC[C@H]3OC(O)[C@H](O)[C@@H](O)[C@@H]3O)O[C@@H]2CO)[C@H](O)[C@@H](O)[C@@H]1O (stereo partly shown) [Isopanose] | ++ | ++ | ++ | ++ |
